Source: US9320276B2, “N-hetarylmethyl pyrazolylcarboxamides” (BAYER INTELLECTUAL PROPERTY GMBH, priority 2010, dated 2016)

Legend:
[1] = tested on: Sphaerotheca fuliginea; test: in vivo preventive test on Sphaerotheca fuliginea (cucumber); settings: 500 ppm of active ingredient, evaluated 7 days after inoculation
Method: Solvent: 49 parts by weight of N,N-dimethylformamide Emulsifier: 1 part by weight of Alkylarylpolyglycolether To produce a suitable preparation of active compound, 1 part by weight of active compound is mixed with the stated amounts of solvent and emulsifier, and the concentrate is diluted with water to the desired concentration. To test for preventive activity, young plants are sprayed with the preparation of active compound at the stated rate of application. One day after this treatment, the plants are inoculated with an aqueous spore suspension of Sphaerotheca fuliginea. Then the plants are placed in a greenhouse at approximately 23° C. and a relative atmospheric humidity of approximately 70%. The test is evaluated 7 days after the inoculation. 0% means an efficacy which corresponds to that of the untreated control, while an efficacy of 100% means that no disease is observed.

[2] = tested on: Fusarium nivale (var. majus); test: in vivo curative test on Fusarium nivale (wheat); settings: 500 ppm of active ingredient, evaluated 5 days after inoculation
Method: Solvent: 49 parts by weight of N,N-dimethylacetamide Emulsifier: 1 part by weight of alkylaryl polyglycol ether To produce a suitable preparation of active compound, 1 part by weight of active compound or active compound combination is mixed with the stated amounts of solvent and emulsifier, and the concentrate is diluted with water to the desired concentration. To test for curative activity, young plants are slightly injured by using a sandblast and afterwards they are sprayed with a conidia suspension of Fusarium nivale (var. majus) and placed for 24 hours in a greenhouse under a translucent incubation cabinet at a temperature of approximately 10° C. and a relative atmospheric humidity of approximately 100% and are subsequently sprayed with the preparation of active compound at the stated rate of application. After the spray coating has been dried, the plants remain in the greenhouse under translucent incubation cloches at a temperature of approximately 10° C. and a relative atmospheric humidity of approximately 100%. The test is evaluated 5 days after the inoculation. 0% means an efficacy which corresponds to that of the untreated control, while an efficacy of 100% means that no disease is observed.

[3] = tested on: Uromyces appendiculatus; test: in vivo preventive test on Uromyces appendiculatus (beans); settings: 100 ppm of active ingredient, evaluated 10 days after inoculation
Method: Solvent: 24.5 parts by weight of acetone • 24.5 parts by weight of N,N-dimethylacetamide Emulsifier: 1 part by weight of alkylaryl polyglycol ether To produce a suitable preparation of active compound, 1 part by weight of active compound is mixed with the stated amounts of solvent and emulsifier, and the concentrate is diluted with water to the desired concentration. To test for preventive activity, young plants are sprayed with the preparation of active compound at the stated rate of application. After the spray coating has dried on, the plants are inoculated with an aqueous spore suspension of the causal agent of bean rust (Uromyces appendiculatus) and then remain for 1 day in an incubation cabinet at approximately 20° C. and a relative atmospheric humidity of 100%. The plants are then placed in a greenhouse at approximately 21° C. and a relative atmospheric humidity of approximately 90%. The test is evaluated 10 days after the inoculation. 0% means an efficacy which corresponds to that of the untreated control, while an efficacy of 100% means that no disease is observed.

[4] = tested on: Botrytis cinerea; test: in vivo protective test on Botrytis cinerea (beans); settings: 100 ppm of active ingredient, preventive, lesion size 2 days after inoculation
Method: Solvent: 24.5 parts by weight of acetone • 24.5 parts by weight of N,N-dimethylacetamide Emulsifier: 1 part by weight of alkylaryl polyglycol ether To produce a suitable preparation of active compound, 1 part by weight of active compound is mixed with the stated amounts of solvent and emulsifier, and the concentrate is diluted with water to the desired concentration. To test for preventive activity, young plants are sprayed with the preparation of active compound. After the spray coating has dried on, 2 small pieces of agar covered with growth of Botrytis cinerea are placed on each leaf. The inoculated plants are placed in a darkened chamber at 20° C. and a relative atmospheric humidity of 100%. 2 days after the inoculation, the size of the lesions on the leaves is evaluated. 0% means an efficacy which corresponds to that of the untreated control, while an efficacy of 100% means that no disease is observed.

[5] = tested on: Puccinia triticina; test: in vivo protective test on Puccinia triticina (wheat); settings: 500 ppm of active ingredient, preventive, evaluated 8 days after inoculation
Method: Solvent: 49 parts by weight of N,N-dimethylacetamide Emulsifier: 1 part by weight of alkylaryl polyglycol ether To produce a suitable preparation of active compound, 1 part by weight of active compound or active compound combination is mixed with the stated amounts of solvent and emulsifier, and the concentrate is diluted with water to the desired concentration. To test for preventive activity, young plants are sprayed with the preparation of active compound or active compound combination at the stated rate of application. After the spray coating has been dried, the plants are sprayed with a spore suspension of Puccinia triticina. The plants remain for 48 hours in an incubation cabinet at approximately 20° C. and a relative atmospheric humidity of approximately 100%. The plants are placed in the greenhouse at a temperature of approximately 20° C. and a relative atmospheric humidity of approximately 80%. The test is evaluated 8 days after the inoculation. 0% means an efficacy which corresponds to that of the untreated control, while an efficacy of 100% means that no disease is observed.

Compound	Efficacy [1] [%]	Efficacy [2] [%]	Efficacy [3] [%]	Efficacy [4] [%]	Efficacy [5] [%]
CC(c1cc2ccccc2o1)N(C(=O)c1c(C(F)F)nn(C)c1F)C1CC1 (racemic) [Example 70]	98	100	100	95	
CC(c1cc2ccccc2s1)N(C(=O)c1c(C(F)F)nn(C)c1F)C1CC1 (racemic) [Example 80]	99	93		100	100
CC(c1cccc2ccsc12)N(C(=O)c1c(C(F)F)nn(C)c1F)C1CC1 (centres unmarked) [Example 91]	88	71			100
Cn1nc(C(F)F)c(C(=S)N(Cc2cccc3ccsc23)C2CC2)c1F [Example 95]	88	86	90		83
CC(c1cc(Cl)sc1Cl)N(C(=O)c1c(C(F)F)nn(C)c1F)C1CC1 (centres unmarked) [Example 128]	98	100	100	100	100
Cc1sc(-c2ccccc2)cc1C(C)N(C(=O)c1c(C(F)F)nn(C)c1F)C1CC1 (centres unmarked) [Example 147]	88	92	83	100	
CC(C)c1nn(-c2ccccc2)c(Cl)c1CN(C(=O)c1c(C(F)F)nn(C)c1F)C1CC1 [Example 169]	100	83	100	100	100
